Reference: article PMC10820527, “Synthesis, Characterization, and Investigation of Anti-Inflammatory and Cytotoxic Activities of Novel Thiourea Derivatives of Naproxen” (Pharmaceutics, 2023)
Read-outs that look alike come from different tables or passages of the source.

Key:
[1] = test system: MDA-MB-231; experiment: MTT cytotoxicity assay, MDA-MB-231; assay type: cell-based, human; details: mean ± SD
Procedure: (§1) Three cancer cell lines (MDA-MB-231, HCT116 and HeLa; i.e., human breast cancer cells, human colorectal cancer cells, and human cervical cancer cells, respectively), and one non-malignant fibroblast MRC-5 cell line (control) were used in this study. The American Type Cell Collection (ATCC, Manassas, VA, USA) provided all examined cell lines. The cells were grown in a complete medium made up of high-glucose DMEM media supplemented with 10% fetal bovine serum and […] L-glutamine (both from Sigma-Aldrich, USA). The cells were cultured in 25 cc flasks (Thermo Fischer Scientific, Waltham, MA, USA) at 37 °C with 100% humidity in a 5% CO2 atmosphere.
(§2) The MTT test was used to assess the cytotoxicity of compounds 1–14 [44]. The cytotoxicity of naproxen was also investigated due to its clinical use and structural similarity. Throughout the exponential development period, cells were taken from culture flasks and counted, and 5 × 10^3 cells/well were planted into 96-well culture plates. Following that, the cell lines were treated with varying doses of the investigated chemicals (1–14), naproxen ([…]), and fresh complete media as a control. All evaluated cells were incubated for 24, 48, and 72 h at 37 °C in an environment containing 5% CO2 and 100% humidity. Following incubation, each well’s culture media was taken out, each well received an addition of MTT solution at a final concentration of 0.5 mg/mL, and the cells were left to incubate for an additional four hours. The MTT solution was then withdrawn carefully, and the formazan crystals were dissolved in DMSO. After shaking the plates for 10 min, absorbance at 595 nm was measured using a multiplate reader (Zenyth 3100, Anthos Labtec Instruments, Salzburg, Austria). All concentrations of the tested compounds were performed in three separate wells of the microtiter plates and in three separate experiments. The results were reported as a ratio to the control value, untreated cells. IC50 values were also determined using Microsoft Office Excel 2021. The percentage of viable cells was estimated by dividing the readout absorbance value in the wells containing treated cells by the average absorbance value measured in the wells containing untreated cells, and multiplying the result by 100 [44]. % of the viable cells = ((absorbance of treated cell-absorbance of blank)/(absorbance of untreated cell-absorbance of blank)) × 100(3)

[2] = test system: HeLa; experiment: MTT cytotoxicity assay, HeLa; assay type: cell-based, human; details: mean ± SD
Procedure: as §1, §2

[3] = test system: MRC-5 fibroblast cell line; experiment: MTT cytotoxicity assay, MRC-5; assay type: cell-based; details: for IC50: mean ± SD
Procedure: as §1, §2

[4] = test system: HCT 116; experiment: MTT cytotoxicity assay, HCT 116; assay type: cell-based, human; details: for IC50: mean ± SD
Procedure: as §1, §2

[5] = target: T1, 5-LOX (Homo sapiens, UniProt P09917); design: method as in PMID 37242450; details: among compounds 1–5, previously published study ref 37; cited from earlier work
T1 construct: purchased Abcam
T1 sequence (P09917 1-674): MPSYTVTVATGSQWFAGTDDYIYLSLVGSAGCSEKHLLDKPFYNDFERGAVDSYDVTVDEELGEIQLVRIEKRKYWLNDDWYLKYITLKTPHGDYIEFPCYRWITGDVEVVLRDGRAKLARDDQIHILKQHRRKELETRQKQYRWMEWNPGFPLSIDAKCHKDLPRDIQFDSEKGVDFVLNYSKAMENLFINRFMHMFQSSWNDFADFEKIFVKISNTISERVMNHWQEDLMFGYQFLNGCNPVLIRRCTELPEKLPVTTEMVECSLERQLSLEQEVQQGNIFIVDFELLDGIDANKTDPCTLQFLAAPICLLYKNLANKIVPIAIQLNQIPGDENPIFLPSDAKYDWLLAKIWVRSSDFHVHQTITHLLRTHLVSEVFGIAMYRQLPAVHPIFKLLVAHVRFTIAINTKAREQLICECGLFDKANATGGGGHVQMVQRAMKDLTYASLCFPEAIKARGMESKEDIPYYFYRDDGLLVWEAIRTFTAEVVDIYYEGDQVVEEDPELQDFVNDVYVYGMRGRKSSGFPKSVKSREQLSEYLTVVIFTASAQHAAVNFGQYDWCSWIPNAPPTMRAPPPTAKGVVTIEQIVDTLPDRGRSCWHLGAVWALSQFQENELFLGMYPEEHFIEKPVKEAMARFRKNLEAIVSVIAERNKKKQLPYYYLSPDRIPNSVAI

[6] = test system: carrageenan-induced rat paw edema; experiment: Carrageenan-induced rat paw edema model; assay type: in vivo; details: for Rat Paw Thickness: mean ± SD; for inhibition in vivo at 2.5 mg/kg / inhibition in vivo at 5 mg/kg / inhibition in vivo at 10 mg/kg: Rattus norvegicus
Procedure: The Carrageenan-induced rat paw edema model was used to assess the anti-inflammatory potential of novel compounds 8–14. Induction of inflammation was performed in all animals by intraplantar injection of […] 0.5% carrageenan saline into the left hind paw.
Animals (n = 200) were randomly divided into the following groups: control groups, that received either 1% DMSO or naproxen, and experimental groups, that received the novel compounds 8–14.
Control groups included DMSO and naproxen groups. Rats belonging to the DMSO group received 1% DMSO in the same volume as the compounds 8–14, 60 min before carrageenan injection. Moreover, naproxen groups included rats that were subjected to naproxen treatment in three doses: 2.5 mg/kg, 5 mg/kg, and 10 mg/kg. Naproxen was applied in the same manner as 1% DMSO.
Experimental groups included rats that were treated with compounds 8–14 and they were divided into three subgroups depending on the applied dose: 2.5 mg/kg, 5 mg/kg, and 10 mg/kg. The examined compounds were dissolved in 1% DMSO prior to treatment and applied to rats 60 min before inducing inflammation, i.e., before carrageenan injection. Doses of naproxen and investigated compounds were defined based on our previously published research.
In order to quantify the anti-inflammatory effects of the tested compounds, left paw thickness was measured at specific time points: prior to inflammation induction (moment 0) and 1, 2, 3, and 4 h (moments 1, 2, 3, and 4) following carrageenan injection. Tissue thickness was measured in the middle of the rat paw using a Digital Vernier caliper (Aerospace, China). The percentage of inhibition of paw edema after treatment with different agents was calculated according to the formula, Equation (2):% Inhibition = 100 × [1 − (Yt/Yc)](2) where Yt = average increase in paw thickness in the treated group of rats between two measurement moments, and Yc = average increase in paw thickness in the untreated group of rats between two measurement moments.

[7] = test system: MCF-7, MDA-MB-231, HeLa, and HCT-116; details: cited from earlier work
[8] = read-out: IC50 (cytotoxic activity of reference drugs), range over MCF-7, MDA-MB-231, HeLa, and HCT-116

COc1cccc(NC(=S)NC(=O)[C@@H](C)c2ccc3cc(OC)ccc3c2)c1 [Compound 4]
IC50 ([1]; 24 h): > 200 µM
IC50 ([1]; 48 h): > 200 µM
IC50 ([1]; 72 h): 110 ± 12.9 µM
IC50 ([2]; 24 h): > 200 µM
IC50 ([2]; 48 h): 101 ± 12.2 µM
IC50 ([2]; 72 h): 90.8 ± 8.3 µM
IC50 ([3]; 24 h): > 200 µM
IC50 ([3]; 48 h): > 200 µM
IC50 ([3]; 72 h): > 200 µM
Cytotoxic effect against the HCT 116 cell line (in words) [4]: moderate cytotoxic effects
IC50 ([4]; 48 h): 106 ± 12.9 µM
IC50 ([4]; 72 h): 71.6 ± 9.9 µM
5-LOX inhibition (in words) [5]: strongest 5-LOX inhibition

COc1ccc2cc([C@H](C)C(=O)O)ccc2c1 [Naproxen, naproxen]
Rat Paw Thickness ([6]; 2.5 mg/kg, 1 h after carrageenan): 6.35 ± 0.15 mm
Rat Paw Thickness ([6]; 2.5 mg/kg, 2 h after carrageenan): 6.02 ± 0.15 mm
Rat Paw Thickness ([6]; 2.5 mg/kg, 3 h after carrageenan): 5.75 ± 0.20 mm
Rat Paw Thickness ([6]; 2.5 mg/kg, 4 h after carrageenan): 5.18 ± 0.20 mm
Rat Paw Thickness ([6]; 5.0 mg/kg, 1 h after carrageenan): 6.02 ± 0.20 mm
Rat Paw Thickness ([6]; 5.0 mg/kg, 2 h after carrageenan): 5.52 ± 0.30 mm
Rat Paw Thickness ([6]; 5.0 mg/kg, 3 h after carrageenan): 5.22 ± 0.30 mm
Rat Paw Thickness ([6]; 5.0 mg/kg, 4 h after carrageenan): 4.98 ± 0.24 mm
Rat Paw Thickness ([6]; 10.0 mg/kg, 1 h after carrageenan): 5.88 ± 0.23 mm
Rat Paw Thickness ([6]; 10.0 mg/kg, 2 h after carrageenan): 5.55 ± 0.45 mm
Rat Paw Thickness ([6]; 10.0 mg/kg, 3 h after carrageenan): 5.35 ± 0.32 mm
Rat Paw Thickness ([6]; 10.0 mg/kg, 4 h after carrageenan): 4.95 ± 0.35 mm
inhibition in vivo at 2.5 mg/kg ([6]; 2.5 mg/kg, 1 h): 19.7%
inhibition in vivo at 2.5 mg/kg ([6]; 2.5 mg/kg, 2 h): 25.8%
inhibition in vivo at 2.5 mg/kg ([6]; 2.5 mg/kg, 3 h): 26.1%
inhibition in vivo at 2.5 mg/kg ([6]; 2.5 mg/kg, 4 h): 46.7%
inhibition in vivo at 5 mg/kg ([6]; 5.0 mg/kg, 1 h): 27.9%
inhibition in vivo at 5 mg/kg ([6]; 5.0 mg/kg, 2 h): 42.4%
inhibition in vivo at 5 mg/kg ([6]; 5.0 mg/kg, 3 h): 47.7%
inhibition in vivo at 5 mg/kg ([6]; 5.0 mg/kg, 4 h): 51.1%
inhibition in vivo at 10 mg/kg ([6]; 10.0 mg/kg, 1 h): 36.1%
inhibition in vivo at 10 mg/kg ([6]; 10.0 mg/kg, 2 h): 43.9%
inhibition in vivo at 10 mg/kg ([6]; 10.0 mg/kg, 3 h): 45.9%
inhibition in vivo at 10 mg/kg ([6]; 10.0 mg/kg, 4 h): 57.8%
IC50 ([1]; Homo sapiens, MDA-MB-231, 24 h, 24 h): > 200 µM
IC50 ([1]; Homo sapiens, MDA-MB-231, 48 h, 48 h): > 200 µM
IC50 ([1]; Homo sapiens, MDA-MB-231, 72 h, 72 h): > 200 µM
IC50 ([2]; Homo sapiens, HeLa, 24 h): > 200 µM
IC50 ([2]; Homo sapiens, HeLa, 48 h): > 200 µM
IC50 ([2]; Homo sapiens, HeLa, 72 h): > 200 µM
Effect on the viability of the MRC-5 fibroblast cell line (in words) [3]: insignificant effect
IC50 ([3]; Homo sapiens, MRC5, 24 h): > 200 µM
IC50 ([3]; Homo sapiens, MRC5, 48 h): > 200 µM
IC50 ([3]; Homo sapiens, MRC5, 72 h): > 200 µM
IC50 ([4]; Homo sapiens, HCT-116, 24 h): > 200 µM
IC50 ([4]; Homo sapiens, HCT-116, 48 h): > 200 µM
IC50 ([4]; Homo sapiens, HCT-116, 72 h): > 200 µM

CN(C)C/C=C/C(=O)Nc1cc2c(Nc3ccc(F)c(Cl)c3)ncnc2cc1O[C@H]1CCOC1 [afatinib]
IC50 [7]: 6.2 to 11.4 µM

Cc1ccc(-c2cc(C(F)(F)F)nn2-c2ccc(S(N)(=O)=O)cc2)cc1 [celecoxib]
IC50 [7, 8]: 22.8 to 42.7 µM

COc1cccc2c1C(=O)c1c(O)c3c(c(O)c1C2=O)C[C@@](O)(C(=O)CO)C[C@@H]3O[C@H]1C[C@H](N)[C@H](O)[C@H](C)O1 [doxorubicin]
IC50 [7, 8]: 3.18 to 26.8 µM
